Data set [1] deals with SMN2 minigene mRNA (SMN2-A minigene) in HEK293H cells. In words: SMN2 minigene mRNA splicing RT-qPCR assay in cultured cells. The format is cell-based, human. To be noted: Homo sapiens, HEK293-H; concentration increasing full length SMN2 mRNA 1.5-fold relative to vehicle-treated cells; HEK293H cells with SMN2-A minigene, 24 hours, 7-point concentration data; read-out: EC1.5x for production of full length SMN2 mRNA. The gist of the method: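 Stable SMN2-A minigene HEK293H; cpd 7-pt 3.16-fold series, 200× in DMSO, 24 h, 37 °C, n=2. Lysates → multiplex RT-qPCR (minigene FL + GAPDH), efficiency-corrected ΔΔCt vs vehicle. EC1.5× = 1.5-fold FL mRNA gain.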
For orientation: Real-time PCR tracks product formation cycle by cycle.

Data set [2] deals with Smn protein in SMA patient fibroblast cells (GM03813). In words: Smn protein assay in cultured cells (SMN HTRF). In kind it is cell-based, human. To be noted: SMA patient fibroblast cells, 48 hours; for EC1.5x for Smn protein expression: 7-point concentration curve, SMN HTRF, concentration producing 1.5 times Smn protein vs DMSO vehicle control; for maximum fold (Fold) increase of Smn protein: 7-point concentration data, fold relative to vehicle control. A digest of the protocol: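 Fibroblasts, SMA patient; 5,000 cells/well; 7-pt curve, 3.16-fold serial dilution; 48 h, 37 °C, 5% CO2; RIPA lysis 1 h RT; anti-SMN d2 + kryptate overnight RT; HTRF 665/620 nm; fold vs DMSO; EC1.5×, max fold.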

The structures appear in SMILES notation.

Usually melting point stands for the temperature of the solid-liquid transition.

In turn, `COc1cccc(-c2cc(=O)n3cc(N4CCNCC4)ccc3n2)c1` [Compound 22, 2-(3-methoxyphenyl)-7-(piperazin-1-yl)-4H-pyrido[1,2-a]pyrimidin-4-one] displayed a melting point of 147 to 149 °C. Further, the EC (1.5-fold increase) in data set [1] was in the range of 0.3 to 1 µM. Moreover, in data set [2], the “EC1.5x for Smn protein expression” value was “** (an EC1.5× between >1 μM and ≤3 μM is indicated by two stars (**))”; the “maximum fold (Fold) increase of Smn protein” value (“maximum fold (Fold) increase” below) is “*** (a fold increase between >1.35 and ≤1.5 is indicated by three stars (***))”.

As for `COc1cccc(-c2cc(=O)n3cc(N4CCN(C)CC4)ccc3n2)c1` [Compound 23, 2-(3-methoxyphenyl)-7-(4-methylpiperazin-1-yl)-4H-pyrido[1,2-a]pyrimidin-4-one], the melting point fell in the range of 173 to 175 °C. Besides, the EC (1.5-fold increase) in data set [1] lay within 3 to 30 µM. Besides, in data set [2], the “maximum fold (Fold) increase” value was “*** (a fold increase between >1.35 and ≤1.5 is indicated by three stars (***))”.

The compound `COc1cccc(-c2cc(=O)n3cc(N4CCN[C@H](C)C4)ccc3n2)c1` [Compound 24, 2-(3-methoxyphenyl)-7-[(3R)-3-methylpiperazin-1-yl]-4H-pyrido[1,2-a]pyrimidin-4-one] came in with a melting point of 164 to 166 °C. The EC (1.5-fold increase) in data set [1] was in the range of 1 to 3 µM. Besides, in data set [2], the “EC1.5x for Smn protein expression” value was “* (An EC1.5× for Smn protein expression between >3 μM and ≤10 μM is indicated by one star (*))”; the “maximum fold (Fold) increase” value is “*** (a fold increase between >1.35 and ≤1.5 is indicated by three stars (***))”.

Compound `COc1cccc(-c2cc(=O)n3cc(N4C[C@@H](C)N[C@@H](C)C4)ccc3n2)c1` [Compound 25, 7-[(3R,5S)-3,5-dimethylpiperazin-1-yl]-2-(3-methoxyphenyl)-4H-pyrido[1,2-a]pyrimidin-4-one] displayed a melting point of 189 to 191 °C. In data set [1], the EC (1.5-fold increase) is 1 to 3 µM. The “maximum fold (Fold) increase” value in data set [2] is “* (A maximum fold increase of ≤1.2 is indicated by one star (*))”.

With `CCN1CCN(c2ccc3nc(-c4cccc(OC)c4)cc(=O)n3c2)CC1` [Compound 26, 7-(4-ethylpiperazin-1-yl)-2-(3-methoxyphenyl)-4H-pyrido[1,2-a]pyrimidin-4-one], the melting point is 158 to 160 °C. Also, in data set [1], the EC (1.5-fold increase) fell in the range of 3 to 30 µM. Also, in data set [2], the “maximum fold (Fold) increase” value is “** (a fold increase between >1.2 and ≤1.35 is indicated by two stars (**))”.

The compound `COc1cccc(-c2cc(=O)n3cc(N4CCCN(C)CC4)ccc3n2)c1` [Compound 28, 2-(3-methoxyphenyl)-7-(4-methyl-1,4-diazepan-1-yl)-4H-pyrido[1,2-a]pyrimidin-4-one] displayed a melting point of 130 to 132 °C. Moreover, the EC (1.5-fold increase) in data set [1] lay within 3 to 30 µM. The “maximum fold (Fold) increase” value in data set [2] was “** (a fold increase between >1.2 and ≤1.35 is indicated by two stars (**))”.

As for `COc1ccc(-c2cc(=O)n3cc(N4CCN[C@@H](C)C4)ccc3n2)cc1OC` [Compound 30, 2-(3,4-dimethoxyphenyl)-7-[(3S)-3-methylpiperazin-1-yl]-4H-pyrido[1,2-a]pyrimidin-4-one], the melting point is 153 to 158 °C. Further, the EC (1.5-fold increase) in data set [1] is below 0.1 µM. For the same compound, in data set [2], the “EC1.5x for Smn protein expression” value is “** (an EC1.5× between >1 μM and ≤3 μM is indicated by two stars (**))”; the “maximum fold (Fold) increase” value is “**** (a fold increase between >1.5 and ≤1.65 is indicated by four stars (****))”.

Compound `O=c1cc(-c2ccc3c(c2)OCCO3)nc2ccc(N3CCNCC3)cn12` [Compound 31, 2-(2,3-dihydro-1,4-benzodioxin-6-yl)-7-(piperazin-1-yl)-4H-pyrido[1,2-a]pyrimidin-4-one] came in with a melting point of 230 to 232 °C. Moreover, the EC (1.5-fold increase) in data set [1] lay in the range of 1 to 3 µM. Besides, the “maximum fold (Fold) increase” value in data set [2] is “* (A maximum fold increase of ≤1.2 is indicated by one star (*))”.

`C[C@H]1CN(c2ccc3nc(-c4ccc5c(c4)OCCO5)cc(=O)n3c2)CCN1` [Compound 32, 2-(2,3-dihydro-1,4-benzodioxin-6-yl)-7-[(3S)-3-methylpiperazin-1-yl]-4H-pyrido[1,2-a]pyrimidin-4-one] showed a melting point of 205 to 207 °C. Besides, the EC (1.5-fold increase) in data set [1] lay in the range of 1 to 3 µM. Moreover, the “maximum fold (Fold) increase” value in data set [2] was “* (A maximum fold increase of ≤1.2 is indicated by one star (*))”.

Compound `O=c1cc(-c2ccccc2)nc2ccc(N3CCNCC3)cn12` [Compound 33, 2-phenyl-7-(piperazin-1-yl)-4H-pyrido[1,2-a]pyrimidin-4-one] came in with a melting point of 151 to 153 °C. In data set [1], the EC (1.5-fold increase) fell in the range of 1 to 3 µM. For the same compound, the “maximum fold (Fold) increase” value in data set [2] is given as “* (A maximum fold increase of ≤1.2 is indicated by one star (*))”.

In the case of `C[C@H]1CN(c2ccc3nc(-c4ccccc4)cc(=O)n3c2)CCN1` [Compound 34, 7-[(3S)-3-methylpiperazin-1-yl]-2-phenyl-4H-pyrido[1,2-a]pyrimidin-4-one], the melting point lay within 170 to 173 °C. Besides, in data set [1], the EC (1.5-fold increase) is 1 to 3 µM. Also, in data set [2], the “maximum fold (Fold) increase” value is “** (a fold increase between >1.2 and ≤1.35 is indicated by two stars (**))”.

In the case of `C[C@@H]1CN(c2ccc3nc(-c4ccc5c(c4)OCCO5)cc(=O)n3c2)CCN1` [Compound 35, 2-(2,3-dihydro-1,4-benzodioxin-6-yl)-7-[(3R)-3-methylpiperazin-1-yl]-4H-pyrido[1,2-a]pyrimidin-4-one], the melting point fell in the range of 212 to 214 °C. The EC (1.5-fold increase) in data set [1] was 3 to 30 µM. For the same compound, the “maximum fold (Fold) increase” value in data set [2] is reported as “* (A maximum fold increase of ≤1.2 is indicated by one star (*))”.

As to `CC1(C)CN(c2ccc3nc(-c4ccc5c(c4)OCCO5)cc(=O)n3c2)CCN1` [Compound 36, 2-(2,3-dihydro-1,4-benzodioxin-6-yl)-7-(3,3-dimethylpiperazin-1-yl)-4H-pyrido[1,2-a]pyrimidin-4-one], the melting point lay in the range of 196 to 198 °C. Also, the EC (1.5-fold increase) in data set [1] lay within 3 to 30 µM. Also, the “maximum fold (Fold) increase” value in data set [2] is on record as “* (A maximum fold increase of ≤1.2 is indicated by one star (*))”.

Take `C[C@@H]1CN(c2ccc3nc(-c4ccc5c(c4)OCCO5)cc(=O)n3c2)C[C@H](C)N1` [Compound 37, 2-(2,3-dihydro-1,4-benzodioxin-6-yl)-7-[(3R,5S)-3,5-dimethylpiperazin-1-yl]-4H-pyrido[1,2-a]pyrimidin-4-one]: the melting point lay within 247 to 250 °C. The EC (1.5-fold increase) in data set [1] fell in the range of 1 to 3 µM. The “maximum fold (Fold) increase” value in data set [2] was “* (A maximum fold increase of ≤1.2 is indicated by one star (*))”.

Turning to `O=c1cc(-c2ccc3c(c2)OCCO3)nc2ccc(N3CCCNCC3)cn12` [Compound 38, 7-(1,4-diazepan-1-yl)-2-(2,3-dihydro-1,4-benzodioxin-6-yl)-4H-pyrido[1,2-a]pyrimidin-4-one], the melting point was in the range of 180 to 182 °C. The EC (1.5-fold increase) in data set [1] is 3 to 30 µM. The “maximum fold (Fold) increase” value in data set [2] was “* (A maximum fold increase of ≤1.2 is indicated by one star (*))”.

On to `CN1CCCN(c2ccc3nc(-c4ccc5c(c4)OCCO5)cc(=O)n3c2)CC1` [Compound 39, 2-(2,3-dihydro-1,4-benzodioxin-6-yl)-7-(4-methyl-1,4-diazepan-1-yl)-4H-pyrido[1,2-a]pyrimidin-4-one], for which the melting point fell in the range of 150 to 152 °C. The EC (1.5-fold increase) in data set [1] is 3 to 30 µM. For the same compound, the “maximum fold (Fold) increase” value in data set [2] is on record as “* (A maximum fold increase of ≤1.2 is indicated by one star (*))”.

The record behind these values is patent US11753407B2, “Compounds for treating spinal muscular atrophy” (PTC Therapeutics, Inc., priority 2012, dated 2023).
